Experiment: xn = mol fraction of the nth substance listed
Settings: for mass density: 100 kPa, Liquid, Vibrating tube method; for surface tension liquid-gas: Maximal bubble pressure

CCn1cc[n+](CCOC)c1.O=S(=O)([O-])C(F)(F)F + CCCO
Settings	mass density, 303.15 K [kg/m3]	mass density, 308.15 K [kg/m3]	mass density, 313.15 K [kg/m3]	mass density, 318.15 K [kg/m3]	surface tension liquid-gas, 308.15 K [mN/m]	surface tension liquid-gas, 313.15 K [mN/m]	surface tension liquid-gas, 318.15 K [mN/m]
x1 = 0.0987	931.974	927.821	923.647	919.45	22.1	21.7	21.3
x1 = 0.1999	1030.91	1026.69	1022.48	1018.44	22.7	22.4	22.1
x1 = 0.2982	1101.93	1097.7	1093.47	1089.25	23.6	23.2	22.8
x1 = 0.3994	1158.75	1154.52	1150.29	1146.1	24.8	24.5	24.2
x1 = 0.499	1203.08	1198.86	1194.66	1190.46	26.4	26.1	25.8
x1 = 0.5993	1239.64	1235.43	1231.23	1227.04	28.3	28	27.8
x1 = 0.6979	1269.36	1265.15	1260.96	1256.78	30.4	30	29.7
x1 = 0.8009	1295.75	1291.54	1287.35	1283.18	32	31.7	31.4
x1 = 0.8992	1317.21	1313	1308.81	1304.63	33.9	33.7	33.5
x1 = 1	1336.17	1331.96	1327.77	1323.6	35.3	35.1	34.9
